Assays:
oxMIF = molecular target: T1, oxMIF (Homo sapiens, UniProt P14174); test: 15N-HSQC NMR binding to H2O2-treated wild-type MIF (oxMIF)
T1 construct: made in house; host or cells: E. coli BL21-(DE3)-Rosetta-pLysS, pET11a-MIF, then H2O2 treatment
T1 sequence (P14174 2-115 limits assumed): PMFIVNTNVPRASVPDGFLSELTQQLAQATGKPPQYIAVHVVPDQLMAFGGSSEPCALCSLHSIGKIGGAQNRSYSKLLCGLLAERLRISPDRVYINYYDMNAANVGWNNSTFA
Procedure: The NMR F1-[^13C,^15N]-filtered-[^1H,^1H]-NOESY spectra for structure calculation were recorded on a 700 MHz Bruker Avance Neo spectrometer equipped with cryoprobe, and the ^15N-HSQC were recorded on a 600 MHz Bruker Avance III spectrometer equipped with cryoprobe. The filtered NOESY were recorded for MIF 1.0 mM and saturation of PAV-174, i.e., 1.0 mM of PAV-174. at 310K to reduce the rotational correlation time of the system, with two different mixing times 60 and 100ms; the free induction decay was measured for 106ms (2048 points) and the indirect dimension was set to 20ms (400 points); the signal acquisition was performed with 160 scans and the interscan delay was set to 1.5s. The ^15N-HSQC were measured at 298K with 121ms (2048 points) in the direct dimension and 53 ms (256 points) in the indirect dimension; the signal acquisition was performed through the accumulation of 16 scans and an interscan delay of 1s was applied. The cross-peaks corresponding to ligand-proteins were used to derive ligand-protein distant restraints using the initial rates of the normalized NOE intensity build-up curves.[91] […] The intermolecular distance restraints were kept semiambiguous, i.e., only the ligand signals were assigned, and the MIF- PAV-174 complex was calculated with the NMR^2 software[92] using the CYANA software for tortion angle dynamics structure calculation.

[1] = molecular target: T2, D-dopachrome tautomerase (D-DT) (Homo sapiens, UniProt P30046); test: Drug resin affinity chromatography (DRAC), D-DT; format: binding; settings: SH-SY5Y-tau-P301S lysates
T2 construct: Lysates derived from SH-SY5Y-tau-P301S control; endogenous in cells; host or cells: SH-SY5Y-tau-P301S control and MIF-ko cell lysates
Procedure: For drug resin affinity chromatography (DRAC), supernatant of cell lysates or brain extracts were supplemented with 1 mM of ribonucleoside triphosphates (ATP, GTP, CTP, UTP; NEB), 10 mM creatine phosphate (Sigma) and 10 μL/mL of a 5 mg/mL stock solution of creatine kinase (Sigma). The samples were then loaded onto 20 μL of compound-coupled resin that were equilibrated with PBB-buffer (plus supplements). After one hour of incubation at 26°C, the beads were washed with PBB (100x bed volume). Bound proteins were then eluted either with 200 μM PAV-645 (pig brain) or 100 μM free compound (human brain samples; cell lysates) in the same buffer used as competitor solution or for stripping 1% SDS or 8M urea (cell lysates) for 1h. All elutions were kept frozen until further analysis.
Figure S3. PAV-17 4 reduces ta u phosphorylation al s o in the abs enc e of HSV-1-infection in a MIF and dose dependent manner. Rel a ted to Figure 3
(A) SH-SY5Y-tau-P301S cel ls could efficiently been infected with HSV-1. The cel ls we re infected with increasing MOIs (0 .0 3 to 3. 0 ) of HSV-1 an d then lysed af t er 6h , 9h , 16 h or 24 h. […]
(E) Expression of MIF wa s no t mo du late d up on infection with HSV-1. […] The di ag ram di splays the quantification of MIF normalized to GAPDH derived from three in de pe nd en t exper iments (n =3). […]

SMILES | binding to redMIF and oxMIF (chemical shift perturbations) (oxMIF) | binding of / interaction with D-DT [1]
CCc1cc(N2CCCC2)cc2[s+]c3cc(N4CCCC4)cc(C)c3nc12.[I-] [PAV-174, 3,7-Di(pyrrolidine-1-yl) 1-ethyl-9-methyl-phenothiazin-5-ium iodide] | bound to both MIF species | 
[I-].c1cc2nc3ccc(N4CCCC4)cc3[s+]c2cc1N1CCCC1 [PAV-617, 3,7-Di(pyrrolidine-1-yl)phenothiazine-5-ium iodide] |  | no bi nd ing of D-DT

Source: paper PMC12866179, “Oxidized MIF is an Alzheimer’s disease drug target relaying external risk factors to tau pathology” (Cell Reports Medicine, 2025)
